Source: article PMC10703812, “Understanding the molecular mechanisms of odorant binding and activation of the human OR52 family” (Nature Communications, 2023)
“And” between values parts separate entries of the source, which are not always exact repeats. Equal values may be shown once.

What was measured:
OR52cs [1] = assay: cAMP signaling assay (cAMP sensor) in Hana3A cells; assay type: cell-based, human; details: single experiments
Method: For cAMP assay, CRE luciferase assay, and surface ELISA, the full-length OR52cs construct was cloned into the pcDNA3.1 vector. The Lucy signal sequence and FLAG peptide sequence were added to the N-terminus. Mutant constructs were generated by site-directed mutagenesis. For BRET assay, eYFP was added at the C-terminus of OR52cs with a GGGGS linker. Rluc was added to Gα for resonance partner (after L99 for Gαs, and I100 for Gαolf, respectively, with GGGGS linker back and forth). […]
(§1) Hana3A cells were seeded on 96-well white microplates and transfected with OR52cs or the corresponding mutants and cAMP sensor (Promega). The medium was exchanged with CO2-independent medium (Gibco) supplemented with 0.375 mg ml^−1 D-luciferin (Nanolight) 48 h after infection, and cells were incubated in the dark at 20 °C for 2 h. Basal luminescence was detected using a Tristar 2 LB 942 multimode reader (Berthold) until it reached a plateau. Subsequently, various concentrations of odorants and forskolin (Sigma-Aldrich) were added to each well, and luminescence was measured again. Data were analyzed and plotted using GraphPad Prism 9.4.1.

OR52cs R265A = assay: CRE luciferase assay in Hana3A cells, mutant; assay type: cell-based, human; details: 100 µM carboxylic acid; Fig.S7a, single experiments
Method: (§2) For cAMP assay, CRE luciferase assay, and surface ELISA, the full-length OR52cs construct was cloned into the pcDNA3.1 vector. The Lucy signal sequence and FLAG peptide sequence were added to the N-terminus. Mutant constructs were generated by site-directed mutagenesis. For BRET assay, eYFP was added at the C-terminus of OR52cs with a GGGGS linker. Rluc was added to Gα for resonance partner (after L99 for Gαs, and I100 for Gαolf, respectively, with GGGGS linker back and forth).
48 h after infection, cells were treated with odorants and incubated at 37 °C for 4 h. […] All values were divided by the Renilla luciferase activity to normalize the effect of cell confluence. All data were analyzed using GraphPad Prism 9.4.1.

OR52cs V158F = assay: cAMP signaling assay, mutant; assay type: cell-based, human; details: for cAMP response: Fig.S8b source data, single experiments
Method: as §2, §1

OR52cs V158F/V209M = assay: cAMP signaling assay, mutant; assay type: cell-based, human; details: for cAMP response: Fig.S8b source data, single experiments
Method: as §2, §1

OR52L1 = tested on: OR52L1; design: method as in earlier work; details: cited from earlier work
OR52cs [2] = assay: CRE luciferase assay in Hana3A cells; assay type: cell-based, human; details: for relative fold of CRE luciferase activity: Fig.S7b, single experiments
Method: as §2
Hana3A cells were seeded on 96-well white microplates (SPL) and transfected with plasmids encoding CRE-luciferase, OR52cs or R265^6.59A mutant, Renilla luciferase, RTP1S, and Ric8b at a […] ratio 24 h after seeding. 48 h after infection, cells were treated with odorants and incubated at 37 °C for 4 h. Luminescence was measured using a Tristar 2 LB 942 multimode reader (Berthold). All values were divided by the Renilla luciferase activity to normalize the effect of cell confluence. All data were analyzed using GraphPad Prism 9.4.1.

[3] = odorant 9.18274e-6 M, Fig.1a source data
[4] = odorant 3.0303e-5 M, Fig.1a source data
[5] = odorant 0.0001 M, Fig.1a source data
[6] = odorant 9.18274e-8 M, Fig.S8b source data
[7] = odorant 9.18274e-7 M, Fig.S8b source data
[8] = odorant 9.18274e-6 M, Fig.S8b source data
[9] = odorant 3.0303e-5 M, Fig.S8b source data
[10] = odorant 0.0001 M, Fig.S8b source data
[11] = odorant 0.001 M, Fig.S8b source data

| Structure (SMILES) | cAMP response (OR52cs [1]; [3]) | relative fold (luciferase activity over DMSO) (OR52cs R265A) | cAMP response (OR52cs V158F; odorant 9.18274e-8 M) | cAMP response (OR52cs V158F; odorant 9.18274e-7 M) | cAMP response (OR52cs V158F; odorant 9.18274e-6 M) | cAMP response (OR52cs V158F; odorant 3.0303e-5 M) | cAMP response (OR52cs V158F; odorant 0.0001 M) | cAMP response (OR52cs V158F; odorant 0.001 M) | cAMP response (OR52cs V158F/V209M; odorant 9.18274e-8 M) | cAMP response (OR52cs V158F/V209M; odorant 9.18274e-7 M) | cAMP response (OR52cs V158F/V209M; odorant 9.18274e-6 M) | cAMP response (OR52cs V158F/V209M; odorant 3.0303e-5 M) | cAMP response (OR52cs V158F/V209M; odorant 0.0001 M) | cAMP response (OR52cs V158F/V209M; odorant 0.001 M) | cAMP response (OR52cs [1]; [6]) | cAMP response (OR52cs [1]; [7]) | cAMP response (OR52cs [1]; [8]) | cAMP response (OR52cs [1]; [9]) | cAMP response (OR52cs [1]; [10]) | cAMP response (OR52cs [1]; [11]) | also measured |
| --- | --- | --- | --- | --- | --- | --- | --- | --- | --- | --- | --- | --- | --- | --- | --- | --- | --- | --- | --- | --- | --- |
| CCCCCCCCC(=O)O [Nonanoate, nonanoate] | 36.8538 and 30.3132 and 25.7666 | 1.195 fold and 0.996 fold and 1.289 fold and 1.267 fold | – | – | – | – | – | – | – | – | – | – | – | – | – | – | – | – | – | – | cAMP response (OR52cs [1]; [4]): 65.8721 and 78.3812 and 58.155; cAMP response (OR52cs [1]; [5]): 84.5947 and 88.3315 and 72.5955 |
| CCCCCCCCCCC(=O)O [Undecanoate, undecanoate] | 17.2544 and 14.2907 and 24.4976 | 1.911 fold and 1.478 fold and 1.422 fold and 1.276 fold | – | – | – | – | – | – | – | – | – | – | – | – | – | – | – | – | – | – | – |
| CCCCCCCCCC(=O)O [Decanoate, decanoate] | 23.4129 and 25.1996 and 45.8933 | 1.3086 fold and 1.135 fold and 1.747 fold and 1.1432 fold | – | – | – | – | – | – | – | – | – | – | – | – | – | – | – | – | – | – | – |
| CCCCCCC(=O)O [Heptanoate, heptanoate] | – | 1.17 fold and 1.091 fold and 1.293 fold and 0.9952 fold | 0.8685% and 0.5114% and 0.9157% | 1.104% and 0.7302% and 1.422% | 3.442% and 2.688% and 4.371% | 27.9975% and 25.6918% and 43.6578% | 66.0899% and 63.5108% and 78.243% | 94.8324% and 85.8407% and 105.113% | 0.3154% and 0.3231% and 0.3938% | 4.347% and 1.257% and 3.311% | 29.4811% and 22.451% and 26.2109% | 75.795% and 74.3485% and 82.8548% | 83.9682% and 91.5635% and 102.817% | 81.746% and 93.3745% and 90.7212% | – | – | – | – | – | – | cAMP response (OR52cs [1]; [4]): 56.3478 and 75.8757 and 80.5266; cAMP response (OR52cs [1]; [5]): 81.4095 and 85.4775 and 102.977; cAMP response (OR52cs [1]; odorant 0.001 M, Fig.1a source data): 96.609 and 80.1017 and 111.088; downstream signal / selectivity (in words) (OR52cs V158F; Supplementary Fig. 8): enhanced selectivity |
| CCC(=O)O [Propionate, propionate] | – | – | 0.2434% and 0.9095% | -0.2446% and -2.828% | 0.996% and -2.758% | -1.498% and -2.916% | -0.9959% and -2.168% | 2.021% and 1.439% | 0.9618% and -0.01314% and -0.2398% | 1.572% and -0.593% and -0.7182% | 1.935% and -0.7307% and 0.6877% | 2.83% and 0.05137% and 0.2753% | 2.508% and 0.3655% and 0.1006% | 6.973% and 2.2608% and 3.165% | -0.2092% and 0.1117% and 0.5205% | -0.1831% and 0.1609% and 0.123% | -0.2867% and 0.1185% and 0.09817% | 0.2368% and 0.05491% and -0.002619% | -0.3215% and 0.04237% and 0.3227% | 0.5115% and 1.283% and 1.204% | – |
| CCCCCC(=O)O [Hexanoate, hexanoate] | – | 1.1154 fold and 1.251 fold and 1.361 fold and 1.012 fold | 0.5855% and -0.5118% | 0.5361% and -0.697% | 0.7501% and -0.4246% | 1.164% and -0.1819% | 1.41% and -0.4498% | 3.85% and 2.176% | 1.222% and -0.2583% and 0.8037% | 3.048% and 0.3713% and 1.148% | 18.0149% and 8.5338% and 10.0807% | 41.8588% and 26.1015% and 26.6027% | 60.5576% and 50.8798% and 56.2545% | 83.4195% and 80.8044% and 89.7505% | – | – | – | – | – | – | response / preference (in words) (OR52cs V158F/V209M; Supplementary Fig. 8): increased responses |
| CCCCC(=O)O [Pentanoate, pentanoate] | – | – | 0.9264% and 0.2953% and 1.001% | 0.9435% and 0.3179% and 1.755% | 1.032% and 0.4577% and 1.961% | 1.125% and 0.847% and 2.468% | 1.499% and 1.023% and 3.422% | 5.439% and 4.505% and 7.762% | -0.5993% and 0.7689% and 1.106% | -0.2116% and 0.634% and 0.6548% | 0.981% and 2.2804% and 2.576% | 3.113% and 5.861% and 4.955% | 9.203% and 15.4507% and 12.8173% | 39.0499% and 48.7069% and 47.2503% | -0.162% and 0.6359% and -0.04254% | 0.07645% and 0.3953% and 0.2459% | 0.2758% and 0.7357% and 0.01532% | 0.2715% and 0.6901% and 0.4212% | 0.1615% and 1.39% and 0.4292% | 2.769% and 2.642% and 1.705% | response of OR52L1 (in words) (OR52L1): responsive |
| CCCC(=O)O [Butyrate] | – | – | 0.537% and 0.1319% and 1.733% | 0.488% and 0.3268% and 1.1839% | 0.5541% and 0.2838% and 1.329% | 0.4886% and 0.5179% and 1.414% | 0.8581% and 0.2707% and 1.963% | 2.495% and 1.981% and 6.452% | 0.4134% and 1.119% and 0.2589% | 0.6599% and 0.9287% and 0.2324% | 1.238% and 1.86% and 0.7353% | 1.067% and 2.455% and 1.672% | 1.838% and 4.182% and 3.8607% | 12.4605% and 15.8218% and 16.2328% | -0.08428% and 0.1653% and 0.2939% | -0.5369% and 0.4001% and -0.04745% | 0.134% and 0.6883% and 0.4284% | 0.1103% and 0.05302% and 0.2786% | -0.1073% and 0.8927% and 0.1591% | 1.5929% and 1.31% and 1.1069% | – |
| CCCCCCCCO [Octanol, octanol] | – | – | – | – | – | – | – | – | – | – | – | – | – | – | – | – | – | – | – | – | activation of OR52cs (in words) (OR52cs [2]; Supplementary Fig. 7): failed to activate; relative fold of CRE luciferase activity (OR52cs [2]; odorant 10 μM): 1.663 fold and 1.557 fold and 1.263 fold and 1.4999 fold; relative fold of CRE luciferase activity (OR52cs [2]; odorant 50 μM): 1.747 fold and 1.809 fold and 1.706 fold and 1.694 fold; relative fold of CRE luciferase activity (OR52cs [2]; odorant 100 μM): 1.917 fold and 1.93 fold and 1.901 fold and 2.061 fold; relative fold of CRE luciferase activity (OR52cs [2]; odorant 250 μM): 1.931 fold and 2.053 fold and 2.136 fold and 2.342 fold; relative fold of CRE luciferase activity (OR52cs [2]; odorant 500 μM): 1.887 fold and 2.082 fold and 2.24 fold and 2.823 fold |
